The text below walks through data of ChEMBL document CHEMBL4038308, “Lipophosphonoxins II: Design, Synthesis, and Properties of Novel Broad Spectrum Antibacterial Agents” (J Med Chem, 2017).

Converted amounts (≈) assume the structure as drawn.

For data set [1], the system named is J774.A1. Briefly: Cytotoxicity against mouse J774A.1 cells assessed as damage to cell membrane by measuring propidium iodide intake at 5 uM by spectrofluorometric analysis. Type of data set: cell-based. The following applies: j774.a1, 5 µM.
Data set [2] relates to Lipid bilayer. Briefly: Binding affinity to DOPG large unilamellar vesicle assessed as increase in fluorescence intensity at 5 mg/L after 10 mins by fluorescence assay relative to control.
Data set [3] has as its system Lipid bilayer. Put plainly: Binding affinity to DOPG large unilamellar vesicle assessed as Stern-Volmer quenching constant after 10 mins in presence of potassium iodide by fluorescence assay (reference value: 47.22 +/- 1.58 no_unit).
Data set [4] concerns Lipid bilayer. Put plainly: Binding affinity to DOPG large unilamellar vesicle assessed as blue shift in emission maximum at 5 mg/L after 10 mins by fluorescence assay relative to control.
The subject of data set [5] is Pseudomonas aeruginosa. Put plainly: microbe, parasite or virus in culture. The following applies: CCM 3955, 24 h.

Consider `CC[C@H](C)[C@H](NC(=O)CN)C(=O)NCC(=O)N[C@@H](C)C(=O)N[C@H](C(=O)N[C@@H](CC(C)C)C(=O)N[C@@H](CCCCN)C(=O)N[C@H](C(=O)N[C@@H](CC(C)C)C(=O)N[C@H](C(=O)N[C@H](C(=O)NCC(=O)N[C@@H](CC(C)C)C(=O)N1CCC[C@H]1C(=O)N[C@@H](C)C(=O)N[C@@H](CC(C)C)C(=O)N[C@H](C(=O)N[C@@H](CO)C(=O)N[C@@H](Cc1c[nH]c2ccccc12)C(=O)N[C@H](C(=O)N[C@@H](CCCCN)C(=O)N[C@@H](CCCNC(=N)N)C(=O)N[C@@H](CCCCN)C(=O)N[C@@H](CCCNC(=N)N)C(=O)N[C@@H](CCC(N)=O)C(=O)N[C@@H](CCC(N)=O)C(N)=O)[C@@H](C)CC)[C@@H](C)CC)[C@@H](C)O)[C@@H](C)O)C(C)C)C(C)C` [MELITTIN], for which, in data set [1], the Activity result was “Toxic”.
For `CCCCCCCCCCCCCCOP(=O)(CCN(CCCN)CCCN)OC[C@H]1O[C@@H](n2cc(-c3ccco3)c(=O)[nH]c2=O)[C@H](O)[C@@H]1O` (stereo not given in full), the fold change (FC) in data set [2] stood at 3.5. Moreover, in data set [3], the KSV was determined as 0.97. For the same compound, in data set [4], the Activity is 25 nm.
In turn, `O=C(O)c1cn(C2CC2)c2cc(N3CCNCC3)c(F)cc2c1=O` [CIPROFLOXACIN] gave an MIC in data set [5] of 4 µg/mL (≈ 12.1 µM).
